Patent US20120122860A1, “SOLID FORMS OF SULFONAMIDES AND AMINO ACIDS” (Plexxikon, Inc., priority 2009, published 2012)

Assays:
B-Raf = B-Raf (Homo sapiens, UniProt P15056); assay: Kinase activity assay, B-Raf; assay type: biochemical; conditions: read-out: activity toward kinase B-Raf, IC50
B-Raf V600E = B-Raf V600E (Homo sapiens, UniProt P15056, V600E); assay: Kinase activity assay, B-Raf V600E; assay type: biochemical; conditions: read-out: activity toward kinase B-Raf V600E, IC50
Btk = Btk (Homo sapiens, UniProt Q06187); assay: Kinase activity assay, Btk
Fms = Fms (Homo sapiens, UniProt P07333); assay: Kinase activity assay, Fms
Fms, sequence (P07333 20-972): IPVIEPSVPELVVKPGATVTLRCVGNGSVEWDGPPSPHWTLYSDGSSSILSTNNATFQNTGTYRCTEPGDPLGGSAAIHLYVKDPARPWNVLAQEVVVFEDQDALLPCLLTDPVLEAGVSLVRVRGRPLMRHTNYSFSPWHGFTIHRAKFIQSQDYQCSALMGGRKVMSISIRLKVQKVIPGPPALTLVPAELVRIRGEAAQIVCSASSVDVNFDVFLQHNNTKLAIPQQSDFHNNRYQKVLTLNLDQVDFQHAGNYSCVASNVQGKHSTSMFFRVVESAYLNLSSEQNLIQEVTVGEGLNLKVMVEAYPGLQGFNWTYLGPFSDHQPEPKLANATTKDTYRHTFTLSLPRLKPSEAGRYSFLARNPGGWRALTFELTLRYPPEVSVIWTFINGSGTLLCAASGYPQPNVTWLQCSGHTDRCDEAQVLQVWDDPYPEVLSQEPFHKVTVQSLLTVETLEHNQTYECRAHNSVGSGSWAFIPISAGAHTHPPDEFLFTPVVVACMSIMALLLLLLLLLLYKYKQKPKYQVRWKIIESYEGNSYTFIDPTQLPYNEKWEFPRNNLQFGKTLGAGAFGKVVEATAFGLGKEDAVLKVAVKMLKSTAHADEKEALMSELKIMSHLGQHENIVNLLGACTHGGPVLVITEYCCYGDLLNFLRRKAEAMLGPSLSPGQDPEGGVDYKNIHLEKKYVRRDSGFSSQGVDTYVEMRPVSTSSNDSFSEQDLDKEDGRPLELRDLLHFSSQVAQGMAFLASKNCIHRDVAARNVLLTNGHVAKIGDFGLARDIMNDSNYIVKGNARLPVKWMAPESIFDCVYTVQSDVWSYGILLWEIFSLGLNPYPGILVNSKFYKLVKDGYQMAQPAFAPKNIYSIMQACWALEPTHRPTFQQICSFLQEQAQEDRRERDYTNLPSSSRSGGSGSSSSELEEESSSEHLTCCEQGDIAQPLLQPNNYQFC

Kdr = Kdr (Homo sapiens, UniProt P35968); assay: Kinase activity assay, Kdr
Kdr, sequence (P35968 20-1356): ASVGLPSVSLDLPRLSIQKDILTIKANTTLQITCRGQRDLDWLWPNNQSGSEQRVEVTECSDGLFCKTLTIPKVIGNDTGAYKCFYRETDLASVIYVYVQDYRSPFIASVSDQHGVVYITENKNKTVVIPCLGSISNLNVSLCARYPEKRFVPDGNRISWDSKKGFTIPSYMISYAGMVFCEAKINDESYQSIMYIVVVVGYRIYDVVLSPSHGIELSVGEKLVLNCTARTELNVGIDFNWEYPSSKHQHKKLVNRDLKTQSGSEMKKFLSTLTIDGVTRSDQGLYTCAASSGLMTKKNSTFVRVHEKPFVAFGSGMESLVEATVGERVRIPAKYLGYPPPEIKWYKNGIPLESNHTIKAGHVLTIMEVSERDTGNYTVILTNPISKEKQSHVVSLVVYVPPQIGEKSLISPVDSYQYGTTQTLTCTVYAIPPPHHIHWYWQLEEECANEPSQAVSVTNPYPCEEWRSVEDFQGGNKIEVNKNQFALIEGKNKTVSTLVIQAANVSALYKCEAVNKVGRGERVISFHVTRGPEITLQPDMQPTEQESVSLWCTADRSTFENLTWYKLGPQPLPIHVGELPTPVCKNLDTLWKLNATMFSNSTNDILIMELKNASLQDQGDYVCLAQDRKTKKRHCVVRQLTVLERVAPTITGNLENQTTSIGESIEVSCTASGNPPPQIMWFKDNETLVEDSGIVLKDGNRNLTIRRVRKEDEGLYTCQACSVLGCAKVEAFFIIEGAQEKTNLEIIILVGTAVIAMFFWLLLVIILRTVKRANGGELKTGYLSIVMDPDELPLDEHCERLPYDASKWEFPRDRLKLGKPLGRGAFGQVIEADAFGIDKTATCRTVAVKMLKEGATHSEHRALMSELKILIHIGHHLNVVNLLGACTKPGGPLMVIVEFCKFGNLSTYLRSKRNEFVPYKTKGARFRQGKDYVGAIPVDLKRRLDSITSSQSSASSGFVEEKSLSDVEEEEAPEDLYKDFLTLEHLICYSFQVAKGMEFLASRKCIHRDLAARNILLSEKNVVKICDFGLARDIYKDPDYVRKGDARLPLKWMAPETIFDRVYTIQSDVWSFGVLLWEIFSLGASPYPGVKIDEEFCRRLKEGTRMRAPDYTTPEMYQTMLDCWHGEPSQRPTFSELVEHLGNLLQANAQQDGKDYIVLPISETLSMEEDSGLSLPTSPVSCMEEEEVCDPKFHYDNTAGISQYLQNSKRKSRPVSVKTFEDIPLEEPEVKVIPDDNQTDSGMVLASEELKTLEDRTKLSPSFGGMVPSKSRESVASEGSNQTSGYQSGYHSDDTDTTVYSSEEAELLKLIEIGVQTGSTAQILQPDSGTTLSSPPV

Kit = Kit (Homo sapiens, UniProt P10721); assay: Kinase activity assay, Kit
Kit, sequence (P10721 26-976): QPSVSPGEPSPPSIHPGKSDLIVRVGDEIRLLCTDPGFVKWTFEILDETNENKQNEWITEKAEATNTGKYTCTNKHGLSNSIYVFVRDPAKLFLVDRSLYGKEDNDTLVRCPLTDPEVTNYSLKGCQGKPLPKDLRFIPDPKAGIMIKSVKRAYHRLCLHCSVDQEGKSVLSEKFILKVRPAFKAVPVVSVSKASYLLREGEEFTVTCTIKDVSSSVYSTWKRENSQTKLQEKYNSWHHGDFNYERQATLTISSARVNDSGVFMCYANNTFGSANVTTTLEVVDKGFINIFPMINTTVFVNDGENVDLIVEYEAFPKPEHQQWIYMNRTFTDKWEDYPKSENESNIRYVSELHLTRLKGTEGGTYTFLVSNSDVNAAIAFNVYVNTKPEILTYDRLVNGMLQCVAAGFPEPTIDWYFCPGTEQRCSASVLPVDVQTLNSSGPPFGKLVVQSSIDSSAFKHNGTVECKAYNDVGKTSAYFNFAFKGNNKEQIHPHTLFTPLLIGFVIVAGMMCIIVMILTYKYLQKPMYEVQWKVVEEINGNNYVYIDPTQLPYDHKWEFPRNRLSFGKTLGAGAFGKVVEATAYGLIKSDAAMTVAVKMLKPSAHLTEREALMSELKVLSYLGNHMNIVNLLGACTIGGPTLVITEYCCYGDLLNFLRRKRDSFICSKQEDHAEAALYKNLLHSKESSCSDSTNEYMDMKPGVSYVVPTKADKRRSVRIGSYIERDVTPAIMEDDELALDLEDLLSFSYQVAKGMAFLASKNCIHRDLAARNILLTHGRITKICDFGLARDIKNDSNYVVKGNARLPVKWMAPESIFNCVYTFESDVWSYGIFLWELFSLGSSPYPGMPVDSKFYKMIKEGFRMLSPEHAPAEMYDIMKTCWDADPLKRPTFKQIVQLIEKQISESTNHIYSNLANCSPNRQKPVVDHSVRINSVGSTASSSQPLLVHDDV

Src = Src (Homo sapiens, UniProt P12931); assay: Kinase activity assay, Src
Src, sequence (P12931 whole entry): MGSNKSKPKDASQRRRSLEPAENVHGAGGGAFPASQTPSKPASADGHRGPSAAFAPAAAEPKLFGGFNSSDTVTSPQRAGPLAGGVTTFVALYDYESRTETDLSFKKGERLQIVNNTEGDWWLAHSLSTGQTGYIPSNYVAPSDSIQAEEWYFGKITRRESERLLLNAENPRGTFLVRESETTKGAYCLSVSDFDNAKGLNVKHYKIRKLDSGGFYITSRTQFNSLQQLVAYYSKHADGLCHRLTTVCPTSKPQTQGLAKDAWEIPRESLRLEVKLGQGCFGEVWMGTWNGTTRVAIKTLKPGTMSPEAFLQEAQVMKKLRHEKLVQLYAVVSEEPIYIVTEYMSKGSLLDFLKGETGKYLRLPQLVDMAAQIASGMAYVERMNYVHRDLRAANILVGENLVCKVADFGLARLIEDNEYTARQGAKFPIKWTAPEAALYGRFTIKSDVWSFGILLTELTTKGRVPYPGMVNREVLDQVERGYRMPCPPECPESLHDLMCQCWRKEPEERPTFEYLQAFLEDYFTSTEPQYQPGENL

C-Raf = C-Raf (Homo sapiens, UniProt P04049); assay: Kinase activity assay, C-Raf

B-Raf, sequence (P15056 whole entry): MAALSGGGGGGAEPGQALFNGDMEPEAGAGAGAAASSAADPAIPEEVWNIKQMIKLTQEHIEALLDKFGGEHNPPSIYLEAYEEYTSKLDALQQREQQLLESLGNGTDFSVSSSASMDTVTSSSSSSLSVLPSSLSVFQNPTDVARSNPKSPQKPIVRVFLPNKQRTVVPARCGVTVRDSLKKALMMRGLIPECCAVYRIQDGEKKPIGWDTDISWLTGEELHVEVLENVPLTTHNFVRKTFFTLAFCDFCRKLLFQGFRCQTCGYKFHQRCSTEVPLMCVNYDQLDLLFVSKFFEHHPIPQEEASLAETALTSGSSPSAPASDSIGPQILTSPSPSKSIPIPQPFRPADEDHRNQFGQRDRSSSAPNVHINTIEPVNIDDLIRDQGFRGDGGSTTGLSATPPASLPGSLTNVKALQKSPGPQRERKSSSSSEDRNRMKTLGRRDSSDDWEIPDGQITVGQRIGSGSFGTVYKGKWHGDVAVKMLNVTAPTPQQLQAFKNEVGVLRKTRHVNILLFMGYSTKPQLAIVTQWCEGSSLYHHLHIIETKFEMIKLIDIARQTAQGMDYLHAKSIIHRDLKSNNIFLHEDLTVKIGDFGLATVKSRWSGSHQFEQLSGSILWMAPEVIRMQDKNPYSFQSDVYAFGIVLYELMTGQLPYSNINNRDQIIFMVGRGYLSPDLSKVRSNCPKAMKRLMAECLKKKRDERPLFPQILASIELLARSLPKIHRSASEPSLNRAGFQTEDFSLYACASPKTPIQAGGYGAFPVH
B-Raf V600E, sequence (P15056 whole entry V600E): as the sequence (P15056 whole entry) above, with V600E counted along it

Compound | IC50 (B-Raf) | IC50 (B-Raf V600E) | IC50 (Btk) | IC50 (Fms) | IC50 (Kdr) | IC50 (Kit) | IC50 (Src) | IC50 (C-Raf)
Cn1cc(-c2cnc3[nH]cc(C(=O)c4cc(NS(=O)(=O)c5cccc(OC(F)(F)F)c5)ccc4F)c3c2)cn1 [P-2102, N-{4-Fluoro-3-[5-(1-methyl-1H-pyrazol-4-yl)-1H-pyrrolo[2,3-b]pyridine-3-carbonyl]-phenyl}-3-trifluoromethoxy-benzenesulfonamide] | ≤ 10 µM | ≤ 10 µM | ≤ 10 µM | ≤ 10 µM | ≤ 10 µM | ≤ 10 µM | ≤ 10 µM | –
Cn1cc(-c2cnc3[nH]cc(C(=O)c4cc(NS(=O)(=O)c5cccc(Cl)c5)ccc4F)c3c2)cn1 [P-2103, 3-Chloro-N-{4-fluoro-3-[5-(1-methyl-1H-pyrazol-4-yl)-1H-pyrrolo[2,3-b]pyridine-3-carbonyl]-phenyl}-benzenesulfonamide] | ≤ 10 µM | ≤ 10 µM | ≤ 10 µM | ≤ 10 µM | ≤ 10 µM | ≤ 10 µM | ≤ 10 µM | –
CCCS(=O)(=O)Nc1ccc(F)c(C(=O)c2c[nH]c3ncc(-c4ccc(OC)nc4OC)cc23)c1F [P-2184, Propane-1-sulfonic acid {3-[5-(2,6-dimethoxy-pyridin-3-yl)-1H-pyrrolo[2,3-b]pyridine-3-carbonyl]-2,4-difluoro-phenyl}-amide] | ≤ 10 µM | ≤ 10 µM | ≤ 10 µM | ≤ 10 µM | ≤ 10 µM | ≤ 10 µM | ≤ 10 µM | –
CCCS(=O)(=O)Nc1ccc(F)c(C(=O)c2c[nH]c3ncc(-c4cnn(Cc5ccccc5)c4)cc23)c1F [P-2190, Propane-1-sulfonic acid {3-[5-(1-benzyl-1H-pyrazol-4-yl)-1H-pyrrolo[2,3-b]pyridine-3-carbonyl]-2,4-difluoro-phenyl}-amide] | ≤ 10 µM | ≤ 10 µM | ≤ 10 µM | ≤ 10 µM | ≤ 10 µM | ≤ 10 µM | ≤ 10 µM | –
Cn1cc(-c2cnc3[nH]cc(C(=O)c4cc(NS(=O)(=O)C5CC5)ccc4F)c3c2)cn1 [P-2433, Cyclopropanesulfonic acid {4-fluoro-3-[5-(1-methyl-1H-pyrazol-4-yl)-1H-pyrrolo[2,3-b]pyridine-3-carbonyl]-phenyl}-amide] | – | ≤ 10 µM | ≤ 10 µM | ≤ 10 µM | ≤ 10 µM | ≤ 10 µM | ≤ 10 µM | –

Further lines, results first:

IC50 (B-Raf) | IC50 (B-Raf V600E) | IC50 (Btk) | IC50 (Fms) | IC50 (Kdr) | IC50 (Kit) | IC50 (Src) | IC50 (C-Raf) | Compound
≤ 10 µM | ≤ 10 µM | ≤ 10 µM | ≤ 10 µM | ≤ 10 µM | ≤ 10 µM | ≤ 10 µM | – | CCCS(=O)(=O)Nc1ccc(F)c(C(=O)c2c[nH]c3ncc(-c4ccc(S(N)(=O)=O)cc4)cc23)c1F [P-2194, 4-{3-[2,6-Difluoro-3-(propane-1-sulfonylamino)-benzoyl]-1H-pyrrolo[2,3-b]pyridin-5-yl}-benzenesulfonamide]
– | – | ≤ 10 µM | ≤ 10 µM | ≤ 10 µM | ≤ 10 µM | ≤ 10 µM | ≤ 10 µM | O=C(c1c(F)ccc(NS(=O)(=O)C2CC2)c1F)c1c[nH]c2ncc(-c3ccc(Cl)cc3)cc12 [P-2350, Cyclopropanesulfonic acid {3-[5-(4-chloro-phenyl)-1H-pyrrolo[2,3-b]pyridine-3-carbonyl]-2,4-difluoro-phenyl}-amide]
≤ 10 µM | ≤ 10 µM | ≤ 10 µM | ≤ 10 µM | ≤ 10 µM | ≤ 10 µM | ≤ 10 µM | – | O=C(c1c(F)ccc(NS(=O)(=O)C2CC2)c1F)c1c[nH]c2ncc(-c3ccc(F)cc3)cc12 [P-2351, Cyclopropanesulfonic acid {2,4-difluoro-3-[5-(4-fluoro-phenyl)-1H-pyrrolo[2,3-b]pyridine-3-carbonyl]-phenyl}-amide]
